Measurements: patent US10329309B2, “3-(3H-imidazo[4,5-B]pyridin-2-yl)-1H-pyrazolo[4,3-B]pyridines and therapeutic uses thereof” (Samumed, LLC, priority 2015, dated 2019)

System: IL-6 (THP-1 cells)
Test: Inhibition of IL-6 in LPS-stimulated THP-1 monocytes (HTRF)
Format: cell-based
Details: Homo sapiens; for EC50: LPS 500 ng/mL, IL-6 by HTRF; for inhibition at 10 µM: LPS stimulated, IL-6, at 10 μM, read-out: percent inhibition at 10 μM (given for EC50 of >10 μM)
Method in brief: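 IL-6 release was read as the HTRF 665/620 nm ratio after 22 h of 500 ng/mL LPS at 37 °C. Before stimulation, THP-1 cells kept 24 h in 1% FBS were exposed 2 h to a 10-point 1:3 compound series starting at 10 μM, in 0.1% DMSO. Four-parameter EC50s came from DMSO-normalized duplicates, with % inhibition at 10 μM reported beyond 10 μM.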

EC50 | Structure (SMILES) | inhibition at 10 µM
> 10 µM | CN(C)CCOc1cncc(-c2ccc3[nH]nc(-c4nc5c(-c6cccs6)ccnc5[nH]4)c3n2)c1 [Compound 707, N,N-Dimethyl-2-((5-(3-(7-(thiophen-2-yl)-3H-imidazo[4,5-b]pyridin-2-yl)-1H-pyrazolo[4,3-b]pyridin-5-yl)pyridin-3-yl)oxy)ethan-1-amine] | 35.1%
> 10 µM | c1cc(-c2ccc3c(c2)OCO3)c2nc(-c3n[nH]c4ccc(C5CCNCC5)nc34)[nH]c2n1 [Compound 1108, 3-(7-(Benzo[d][1,3]dioxol-5-yl)-3H-imidazo[4,5-b]pyridin-2-yl)-5-(piperidin-4-yl)-1H-pyrazolo[4,3-b]pyridine] | 30.1%
> 10 µM | c1cncc(-c2ccnc3[nH]c(-c4n[nH]c5ccc(-c6cncc(OC7CCCCC7)c6)nc45)nc23)c1 [Compound 559, 5-(5-(Cyclohexyloxy)pyridin-3-yl)-3-(7-(pyridin-3-yl)-3H-imidazo[4,5-b]pyridin-2-yl)-1H-pyrazolo[4,3-b]pyridine] | 31.6%
0.92 µM | Cc1cn(-c2ccnc3[nH]c(-c4n[nH]c5ccc(-c6cncc(N7CC(N)C7)n6)nc45)nc23)cn1 [Compound 622, 1-(6-(3-(7-(4-Methyl-1H-imidazol-1-yl)-3H-imidazo[4,5-b]pyridin-2-yl)-1H-pyrazolo[4,3-b]pyridin-5-yl)pyrazin-2-yl)azetidin-3-amine] | –
9.48 µM | Oc1cncc(-c2ccc3[nH]nc(-c4nc5c(-c6cccnc6)ccnc5[nH]4)c3n2)c1 [Compound 565, 5-(3-(7-(Pyridin-3-yl)-3H-imidazo[4,5-b]pyridin-2-yl)-1H-pyrazolo[4,3-b]pyridin-5-yl)pyridin-3-ol] | –
0.036 µM | CS(=O)(=O)NCc1cc(F)cc(-c2ccnc3[nH]c(-c4n[nH]c5ccc(-c6cncc(NC(=O)CC7CCNCC7)c6)nc45)nc23)c1 [Compound 769, N-(5-(3-(7-(3-Fluoro-5-(methylsulfonamidomethyl)phenyl)-3H-imidazo[4,5-b]pyridin-2-yl)-1H-pyrazolo[4,3-b]pyridin-5-yl)pyridin-3-yl)-2-(piperidin-4-yl)acetamide] | –
> 10 µM | O=C(CC1CCNCC1)Nc1cncc(-c2ccc3[nH]nc(-c4nc5c(-c6ccccn6)ccnc5[nH]4)c3n2)c1 [Compound 593, 2-(Piperidin-4-yl)-N-(5-(3-(7-(pyridin-2-yl)-3H-imidazo[4,5-b]pyridin-2-yl)-1H-pyrazolo[4,3-b]pyridin-5-yl)pyridin-3-yl)acetamide] | 41.8%
> 10 µM | COc1cncc(-c2ccc3[nH]nc(-c4nc5c(-c6ccoc6)ccnc5[nH]4)c3n2)c1 [Compound 692, 3-(7-(Furan-3-yl)-3H-imidazo[4,5-b]pyridin-2-yl)-5-(5-methoxypyridin-3-yl)-1H-pyrazolo[4,3-b]pyridine] | 39%
> 10 µM | c1cc(-c2ccc3[nH]nc(-c4nc5c(-c6ccncc6)ccnc5[nH]4)c3n2)ccn1 [Compound 130, 5-(pyridin-4-yl)-3-(7-(pyridin-4-yl)-3H-imidazo[4,5-b]pyridin-2-yl)-1H-pyrazolo [4,3-b]pyridine] | 18.9%
> 10 µM | CS(=O)(=O)NCc1cc(F)cc(-c2ccnc3[nH]c(-c4n[nH]c5ccc(-c6cncnc6)nc45)nc23)c1 [Compound 503, N-(3-Fluoro-5-(2-(5-(pyrimidin-5-yl)-1H-pyrazolo[4,3-b]pyridin-3-yl)-3H-imidazo[4,5-b]pyridin-7-yl)benzyl)methanesulfonamide] | 29.6%
> 10 µM | Cn1cc(-c2ccc3[nH]nc(-c4nc5c(-c6cccs6)ccnc5[nH]4)c3n2)cn1 [Compound 700, 5-(1-Methyl-1H-pyrazol-4-yl)-3-(7-(thiophen-2-yl)-3H-imidazo[4,5-b]pyridin-2-yl)-1H-pyrazolo[4,3-b]pyridine] | 0%
> 10 µM | O=C(Cc1ccccc1)Nc1cncc(-c2ccc3[nH]nc(-c4nc5cccnc5[nH]4)c3n2)c1 [Compound 262, N-(5-(3-(3H-imidazo[4,5-b]pyridin-2-yl)-1H-pyrazolo[4,3-b]pyridin-5-yl)pyridin-3-yl)-2-phenylacetamide] | 17.3%
> 10 µM | c1cc(-c2ccnc3[nH]c(-c4n[nH]c5ccc(-c6cnccn6)nc45)nc23)ccn1 [Compound 584, 5-(Pyrazin-2-yl)-3-(7-(pyridin-4-yl)-3H-imidazo[4,5-b]pyridin-2-yl)-1H-pyrazolo[4,3-b]pyridine] | 22%
> 10 µM | CN(C)CCNc1cc(F)cc(-c2ccnc3[nH]c(-c4n[nH]c5ccc(-c6cnccn6)nc45)nc23)c1 [Compound 792, N^1-(3-Fluoro-5-(2-(5-(pyrazin-2-yl)-1H-pyrazolo[4,3-b]pyridin-3-yl)-3H-imidazo[4,5-b]pyridin-7-yl)phenyl)-N^2,N^2-dimethylethane-1,2-diamine] | 23.3%
> 10 µM | c1cnc2[nH]c(-c3n[nH]c4ccc(-c5cn[nH]c5)nc34)nc2c1 [Compound 651, 3-(3H-Imidazo[4,5-b]pyridin-2-yl)-5-(1H-pyrazol-4-yl)-1H-pyrazolo[4,3-b]pyridine] | 0%
> 10 µM | O=C(CC1CCNCC1)Nc1cncc(-c2ccc3[nH]nc(-c4nc5c(-c6ccsc6)ccnc5[nH]4)c3n2)c1 [Compound 673, 2-(Piperidin-4-yl)-N-(5-(3-(7-(thiophen-3-yl)-3H-imidazo[4,5-b]pyridin-2-yl)-1H-pyrazolo[4,3-b]pyridin-5-yl)pyridin-3-yl)acetamide] | 35.9%
> 10 µM | O=C(Nc1cncc(-c2ccc3[nH]nc(-c4nc5c(-c6cccc(F)c6)ccnc5[nH]4)c3n2)c1)C1CC1 [Compound 20, N-(5-(3-(7-(3-Fluorophenyl)-3H-imidazo[4,5-b]pyridin-2-yl)-1H-pyrazolo [4,3-b]pyridin-5-yl)pyridin-3-yl)cyclopropanecarboxamide] | 16%
> 10 µM | Cn1cc(-c2ccc3[nH]nc(-c4nc5c(-c6ccc(F)cc6)ccnc5[nH]4)c3n2)c(CO)n1 [Compound 1129, (4-(3-(7-(4-Fluorophenyl)-3H-imidazo[4,5-b]pyridin-2-yl)-1H-pyrazolo[4,3-b]pyridin-5-yl)-1-methyl-1H-pyrazol-3-yl)methanol] | 24.8%
> 10 µM | CN(C)CCNc1cc(F)cc(-c2ccnc3[nH]c(-c4n[nH]c5ccc(-c6ccccn6)nc45)nc23)c1 [Compound 476, N^1-(3-Fluoro-5-(2-(5-(pyridin-2-yl)-1H-pyrazolo[4,3-b]pyridin-3-yl)-3H-imidazo[4,5-b]pyridin-7-yl)phenyl)-N^2,N^2-dimethylethane-1,2-diamine] | 33%
> 10 µM | CN1CCN(c2ccnc3[nH]c(-c4n[nH]c5ccc(-c6cncc(OC7CCCCC7)c6)nc45)nc23)CC1 [Compound 639, 5-(5-(Cyclohexyloxy)pyridin-3-yl)-3-(7-(4-methylpiperazin-1-yl)-3H-imidazo[4,5-b]pyridin-2-yl)-1H-pyrazolo[4,3-b]pyridine] | 33.5%
> 10 µM | O=C(Nc1cncc(-c2ccc3[nH]nc(-c4nc5cccnc5[nH]4)c3n2)c1)C1CCCCC1 [Compound 275, N-(5-(3-(3H-Imidazo[4,5-b]pyridin-2-yl)-1H-pyrazolo[4,3-b]pyridin-5-yl)pyridin-3-yl)cyclohexanecarboxamide] | 33.1%

Structure (SMILES) | EC50 | inhibition at 10 µM
Cc1cn(-c2ccnc3[nH]c(-c4n[nH]c5ccc(C6=CCNCC6)nc45)nc23)cn1 [Compound 618, 3-(7-(4-Methyl-1H-imidazol-1-yl)-3H-imidazo[4,5-b]pyridin-2-yl)-5-(1,2,3,6-tetrahydropyridin-4-yl)-1H-pyrazolo[4,3-b]pyridine] | 1.55 µM | –
C1=C(c2ccc3[nH]nc(-c4nc5c(-c6ccc7c(c6)OCO7)ccnc5[nH]4)c3n2)CCNC1 [Compound 1109, 3-(7-(Benzo[d][1,3]dioxol-5-yl)-3H-imidazo[4,5-b]pyridin-2-yl)-5-(1,2,3,6-tetrahydropyridin-4-yl)-1H-pyrazolo[4,3-b]pyridine] | > 10 µM | 20.5%
